Structures are written as SMILES.

One may read the melting point as the temperature, or range, at which the solid turns liquid.

Take `O=c1cccnn1-c1ccc2nc([C@H]3C[C@H](N4CCCCC4)C3)sc2c1` [Example 48A, Trans-2-[2-(3-piperidin-1-ylcyclobutyl)-1,3-benzothiazol-6-yl]pyridazin-3(2H)-one]: the melting point was in the range of 139 to 140 °C.

`O=c1cccnn1-c1ccc2nc([C@H]3C[C@@H](N4CCCCC4)C3)sc2c1` [Example 48B, Cis-2-[2-(3-piperidin-1-ylcyclobutyl)-1,3-benzothiazol-6-yl]pyridazin-3(2H)-one]: the melting point was in the range of 127 to 128 °C.

Source of the values: patent US8592467B2, “Benzothiazole cyclobutyl amine derivatives” (Abbvie Inc., priority 2005, dated 2013).
